Measured values as given in publication PMC9959048, “Lipidation of Naturally Occurring α-Helical Antimicrobial Peptides as a Promising Strategy for Drug Design” (International Journal of Molecular Sciences, 2023).
≈ marks a conversion by molar mass, not a printed value. Like-named read-outs stand apart in the source and are kept apart here. Residues, ends and D or L forms follow the SMILES beside them. *: point of attachment. Palmitoyl = CCCCCCCCCCCCCCCC(=O)*; Myristoyl = CCCCCCCCCCCCCC(=O)*; Lauroyl = CCCCCCCCCCCC(=O)*; Decanoyl = CCCCCCCCCC(=O)*

How the values were obtained:
S. aureus PCM2054 = assay type: cell-based, Staphylococcus aureus
Description: (§1) The evaluation of the antimicrobial activity of the synthesized lipopeptides was performed against the following reference bacterial and fungal strains: Staphylococcus aureus PCM 1650, Staphylococcus aureus PCM 2054, Staphylococcus epidermidis PCM 521, Staphylococcus epidermidis PCM 2118, Escherichia coli PCM 2057, Candida albicans PCM 2566, Candida glabrata CCM 8270, Candida krusei CCM 8271, Candida parapsilosis CCM 8260.
(§2) For the initial cultivation of the bacteria and fungi, Luria-Bertani broth (LB, Biomaxima, Lublin, Poland) and Sabouraud Dextrose broth (SB, Biomaxima, Lublin, Poland) were used, respectively. Antimicrobial properties of the compounds were analyzed through the determination of MIC (minimal inhibitory concentrations) by my means of the serial micro-dilution technique according to the guidelines of Clinical & Laboratory Standard Institute (CLSI) established for aerobic bacteria and yeasts.
(§3) According to the procedures, Mueller–Hinton broth (MHB) was used as the working medium for the analysis of the bacterial susceptibility, while RPMI-1640 (with L-glutamine, without sodium bicarbonate) growth medium buffered with MOPS (morpholinepropanesulfonic acid) and supplemented with 2% glucose was used for the experiments with the fungi.
(§4) The experiments were carried out for 24 h at 37 and 35 °C for the bacteria and fungi, respectively. Then, the absorbance was measured at 600 nm for each well of the 96-well plate using a microplate reader (Sunrise TM, Tecan Trading AG, Männedorf, Switzerland). Based on the obtained results, the degree of inhibition of the growth of microorganisms (expressed in %) in the presence of the tested compounds range was determined with respect to the control probes. Inoculated wells without peptide were treated as a positive control (100% growth), and the wells containing working medium only were defined as a negative control (0% growth). All measurements were repeated in triplicate.

S. epidermidis PCM2118 = assay type: cell-based, Staphylococcus epidermidis
Description: as §1, §2, §3, §4

S. epidermidis PCM521 = assay type: cell-based, Staphylococcus epidermidis
Description: as §1, §2, §3, §4

E. coli PCM2057 = assay type: cell-based, Escherichia coli
Description: as §1, §2, §3, §4

C. albicans PCM2566 = assay type: cell-based, Candida albicans
Description: as §1, §2, §3, §4

C. glabrata CCM8270 = assay type: cell-based, Candida glabrata
Description: as §1, §2, §3, §4

C. krusei CCM8271 = assay type: cell-based, Candida krusei
Description: as §1, §2, §3, §4

C. parapsilosis CCM 8260 = assay type: cell-based, Candida parapsilosis
Description: as §1, §2, §3, §4

S. aureus PCM1650 = assay type: cell-based, Staphylococcus aureus
Description: as §1, §2, §3, §4

[1] = Mueller–Hinton broth, inoculum 5 × 10^5 CFU/mL, 24 h, 37 °C, absorbance 600 nm, triplicate
[2] = RPMI-1640 with MOPS and 2% glucose, inoculum 5 × 10^3 CFU/mL, 24 h, 35 °C, absorbance 600 nm, triplicate

Row | Structure (SMILES) | MIC, S. aureus PCM2054 (S. aureus PCM2054; PCM2054, 24 h) [µg/mL] | MIC, S. epidermidis PCM2118 (S. epidermidis PCM2118; PCM2118, 24 h) [µg/mL] | MIC, S. epidermidis PCM521 (S. epidermidis PCM521; PCM521, 24 h) [µg/mL] | MIC, E. coli PCM2057 (E. coli PCM2057; PCM2057, 24 h) [µg/mL] | MIC, C. albicans PCM2566 (C. albicans PCM2566; PCM2566, 24 h) [µg/mL] | MIC, C. glabrata CCM8270 (C. glabrata CCM8270; CCM8270, 24 h) [µg/mL] | MIC, C. krusei CCM8271 (C. krusei CCM8271; CCM8271, 24 h) [µg/mL] | MIC, C. parapsilosis CCM 8260 (C. parapsilosis CCM 8260; CCM 8260, 24 h) [µg/mL] | MIC, S. aureus PCM2054 (S. aureus PCM2054; [1]) [µg/mL] | MIC, S. epidermidis PCM2118 (S. epidermidis PCM2118; [1]) [µg/mL] | MIC, S. epidermidis PCM521 (S. epidermidis PCM521; [1]) [µg/mL] | MIC, E. coli PCM2057 (E. coli PCM2057; [1]) [µg/mL] | MIC, C. albicans PCM2566 (C. albicans PCM2566; [2]) [µg/mL] | MIC, C. glabrata CCM8270 (C. glabrata CCM8270; [2]) [µg/mL] | MIC, C. krusei CCM8271 (C. krusei CCM8271; [2]) [µg/mL] | MIC, C. parapsilosis CCM 8260 (C. parapsilosis CCM 8260; [2]) [µg/mL] | MIC, S. aureus PCM1650 (S. aureus PCM1650; PCM1650, 24 h) [µg/mL] | MIC, S. aureus PCM1650 (S. aureus PCM1650; [1]) [µg/mL]
1 | CCCCCCCCCC(=O)N[C@H](C(=O)N[C@@H](CCCCN)C(=O)N[C@@H](CCCCN)C(=O)N[C@H](C(=O)N[C@@H](CC(C)C)C(=O)N[C@@H](CO)C(=O)N[C@@H](CCCCN)C(=O)N[C@H](C(=O)N[C@@H](CCCCN)C(=O)N[C@@H](CCCCN)C(=O)N[C@@H](CC(C)C)C(=O)N[C@@H](CC(C)C)C(=O)N[C@@H](CCCCN)C(N)=O)[C@@H](C)CC)[C@@H](C)CC)[C@@H](C)CC [C10-LK6] (Decanoyl-IKKILSKIKKLLK-NH2) | 50 (≈ 29.3 µM) | 6.25 (≈ 3.66 µM) | 6.25 (≈ 3.66 µM) | >50 | 6.25 (≈ 3.66 µM) | 6.25 (≈ 3.66 µM) | 6.25 (≈ 3.66 µM) | 6.25 (≈ 3.66 µM) |  |  |  |  |  |  |  |  |  | 
2 | CCCCCCCCCCCC(=O)N[C@@H](CCCCN)C(=O)N[C@@H](CCCNC(=N)N)C(=O)N[C@@H](Cc1ccccc1)C(=O)N[C@@H](CCCCN)C(=O)N[C@@H](CCCCN)C(=O)N[C@@H](Cc1ccccc1)C(=O)N[C@@H](Cc1ccccc1)C(=O)N[C@@H](CCCCN)C(=O)N[C@@H](CCCCN)C(=O)N[C@@H](CC(C)C)C(=O)N[C@@H](CCCCN)C(N)=O [C12-ATRA-1] (Lauroyl-KRFKKFFKKLK-NH2) |  |  |  |  |  |  |  |  | 3.9 (≈ 2.32 µM) | 3.13 (≈ 1.86 µM) | 3.13 (≈ 1.86 µM) | 31.25 (≈ 18.6 µM) | 2.5 (≈ 1.49 µM) | 6.25 (≈ 3.72 µM) | 2.5 (≈ 1.49 µM) | 12.5 (≈ 7.44 µM) |  | 
3 | CCCCCCCCCCCC(=O)N[C@H](C(=O)N[C@@H](CCCCN)C(=O)N[C@@H](CCCCN)C(=O)N[C@H](C(=O)N[C@@H](CC(C)C)C(=O)N[C@@H](CO)C(=O)N[C@@H](CCCCN)C(=O)N[C@H](C(=O)N[C@@H](CCCCN)C(=O)N[C@@H](CCCCN)C(=O)N[C@@H](CC(C)C)C(=O)N[C@@H](CC(C)C)C(=O)N[C@@H](CCCCN)C(N)=O)[C@@H](C)CC)[C@@H](C)CC)[C@@H](C)CC [C12-LK6] (Lauroyl-IKKILSKIKKLLK-NH2) | 50 (≈ 28.8 µM) | 6.25 (≈ 3.6 µM) | 25 (≈ 14.4 µM) | >50 | 6.25 (≈ 3.6 µM) | 3.13 (≈ 1.8 µM) | 6.25 (≈ 3.6 µM) | 6.25 (≈ 3.6 µM) |  |  |  |  |  |  |  |  | 25 (≈ 14.4 µM) | 
4 | CCCCCCCCCCCC(=O)N[C@H](C(=O)N[C@@H](CC(N)=O)C(=O)N[C@@H](Cc1c[nH]c2ccccc12)C(=O)N[C@@H](CCCCN)C(=O)N[C@@H](CCCCN)C(=O)N[C@H](C(=O)N[C@@H](CC(C)C)C(=O)NCC(=O)N[C@@H](CCCCN)C(=O)N[C@H](C(=O)N[C@H](C(=O)N[C@@H](CCCCN)C(=O)N[C@H](C(=O)N[C@@H](C)C(=O)N[C@@H](CCCCN)C(N)=O)C(C)C)[C@@H](C)CC)[C@@H](C)CC)C(C)C)C(C)C [C12-LL-I] (Lauroyl-VNWKKVLGKIIKVAK-NH2) |  |  |  |  |  |  |  |  | 12.5 (≈ 6.56 µM) | 6.25 (≈ 3.28 µM) | 12.5 (≈ 6.56 µM) | >50 | >50 | 12.5 (≈ 6.56 µM) | 12.5 (≈ 6.56 µM) | 3.13 (≈ 1.64 µM) |  | 12.5 (≈ 6.56 µM)
5 | CCCCCCCCCCCCCC(=O)N[C@H](C(=O)N[C@@H](CCCCN)C(=O)N[C@@H](CCCCN)C(=O)N[C@H](C(=O)N[C@@H](CC(C)C)C(=O)N[C@@H](CO)C(=O)N[C@@H](CCCCN)C(=O)N[C@H](C(=O)N[C@@H](CCCCN)C(=O)N[C@@H](CCCCN)C(=O)N[C@@H](CC(C)C)C(=O)N[C@@H](CC(C)C)C(=O)N[C@@H](CCCCN)C(N)=O)[C@@H](C)CC)[C@@H](C)CC)[C@@H](C)CC [C14-LK6] (Myristoyl-IKKILSKIKKLLK-NH2) | 50 (≈ 28.4 µM) | 25 (≈ 14.2 µM) | 25 (≈ 14.2 µM) | >50 | 6.25 (≈ 3.55 µM) | 12.5 (≈ 7.09 µM) | 6.25 (≈ 3.55 µM) | 6.25 (≈ 3.55 µM) |  |  |  |  |  |  |  |  |  | 
6 | CCCCCCCCCCCCCC(=O)N[C@H](C(=O)N[C@@H](CC(N)=O)C(=O)N[C@@H](Cc1c[nH]c2ccccc12)C(=O)N[C@@H](CCCCN)C(=O)N[C@@H](CCCCN)C(=O)N[C@H](C(=O)N[C@@H](CC(C)C)C(=O)NCC(=O)N[C@@H](CCCCN)C(=O)N[C@H](C(=O)N[C@H](C(=O)N[C@@H](CCCCN)C(=O)N[C@H](C(=O)N[C@@H](C)C(=O)N[C@@H](CCCCN)C(N)=O)C(C)C)[C@@H](C)CC)[C@@H](C)CC)C(C)C)C(C)C [C14-LL-I] (Myristoyl-VNWKKVLGKIIKVAK-NH2) |  |  |  |  |  |  |  |  | >50 | 12.5 (≈ 6.46 µM) | 12.5 (≈ 6.46 µM) | >50 | >50 | 12.5 (≈ 6.46 µM) | 12.5 (≈ 6.46 µM) | 3.13 (≈ 1.62 µM) |  | 
7 | CCCCCCCCCCCCCCCC(=O)N[C@H](C(=O)N[C@@H](CCCCN)C(=O)N[C@@H](CCCCN)C(=O)N[C@H](C(=O)N[C@@H](CC(C)C)C(=O)N[C@@H](CO)C(=O)N[C@@H](CCCCN)C(=O)N[C@H](C(=O)N[C@@H](CCCCN)C(=O)N[C@@H](CCCCN)C(=O)N[C@@H](CC(C)C)C(=O)N[C@@H](CC(C)C)C(=O)N[C@@H](CCCCN)C(N)=O)[C@@H](C)CC)[C@@H](C)CC)[C@@H](C)CC [C16-LK6] (Palmitoyl-IKKILSKIKKLLK-NH2) | >50 | 50 (≈ 27.9 µM) | 50 (≈ 27.9 µM) | >50 | 6.25 (≈ 3.49 µM) | >50 | 25 (≈ 14 µM) | 50 (≈ 27.9 µM) |  |  |  |  |  |  |  |  |  | 
8 | CCCCCCCCCCCCCCCC(=O)N[C@H](C(=O)N[C@@H](CC(N)=O)C(=O)N[C@@H](Cc1c[nH]c2ccccc12)C(=O)N[C@@H](CCCCN)C(=O)N[C@@H](CCCCN)C(=O)N[C@H](C(=O)N[C@@H](CC(C)C)C(=O)NCC(=O)N[C@@H](CCCCN)C(=O)N[C@H](C(=O)N[C@H](C(=O)N[C@@H](CCCCN)C(=O)N[C@H](C(=O)N[C@@H](C)C(=O)N[C@@H](CCCCN)C(N)=O)C(C)C)[C@@H](C)CC)[C@@H](C)CC)C(C)C)C(C)C [C16-LL-I] (Palmitoyl-VNWKKVLGKIIKVAK-NH2) |  |  |  |  |  |  |  |  | >50 | 25 (≈ 12.7 µM) | 25 (≈ 12.7 µM) | >50 | >50 | >50 | >50 | 12.5 (≈ 6.37 µM) |  | 
9 | CC[C@H](C)[C@H](N)C(=O)N[C@@H](CCCCN)C(=O)N[C@@H](CCCCN)C(=O)N[C@H](C(=O)N[C@@H](CC(C)C)C(=O)N[C@@H](CO)C(=O)N[C@@H](CCCCN)C(=O)N[C@H](C(=O)N[C@@H](CCCCN)C(=O)N[C@@H](CCCCN)C(=O)N[C@@H](CC(C)C)C(=O)N[C@@H](CC(C)C)C(=O)N[C@@H](CCCCN)C(N)=O)[C@@H](C)CC)[C@@H](C)CC [LK6, reference compound] (H-IKKILSKIKKLLK-NH2) | >50 | 6.25 (≈ 4.03 µM) | 6.25 (≈ 4.03 µM) | >50 | 50 (≈ 32.2 µM) | 31.25 (≈ 20.1 µM) | 12.5 (≈ 8.05 µM) | 12.5 (≈ 8.05 µM) |  |  |  |  |  |  |  |  |  | 
